Measured values reported in ChEMBL document CHEMBL1201862, “PubChem BioAssay data set” (2004).
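Five compound concentrations were applied to cells in 96-well plates for 48 hours; endpoints were derived by simple linear interpolation of the resulting dose-response curve. GI50 marks 50% less growth.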 Activity calls are given as the source filed them. No stated cut-off is given here; in the data, active = GI50 up to about 1.1 µM and inactive = higher.

How the values were obtained:
Assay in all cases: DTP human tumour cell line panel, 48 h
786-0 = test system: 786-0
CCRF-CEM = test system: CCRF-CEM
DU-145 = test system: DU-145
EKVX = test system: EKVX
HOP-92 = test system: HOP-92
KM12 = test system: KM12
MCF7 = test system: MCF7
MDA-MB-435 = test system: MDA-MB-435
NCI-H460 = test system: NCI-H460
NCI/ADR-RES = test system: NCI/ADR-RES
OVCAR-3 = test system: OVCAR-3
OVCAR-8 = test system: OVCAR-8
SF-268 = test system: SF-268
SF-295 = test system: SF-295
SK-MEL-28 = test system: SK-MEL-28
SK-MEL-5 = test system: SK-MEL-5
SN12C = test system: SN12C
T47D = test system: T47D
UO-31 = test system: UO-31
RXF 393 = test system: RXF 393

Measured: GI50

Cc1cc(NS(=O)(=O)c2ccc(Nc3c4ccccc4nc4c(C(=O)NCCO)cccc34)cc2)no1
inactive: 786-0 30.8 µM | CCRF-CEM 15.2 µM | DU-145 34.7 µM | EKVX 60 µM | HOP-92 20.5 µM | KM12 23.9 µM | MCF7 14.9 µM | MDA-MB-435 24.7 µM | NCI-H460 28.6 µM | NCI/ADR-RES > 100 µM | OVCAR-3 21.9 µM | OVCAR-8 34.5 µM | SF-268 30.5 µM | SF-295 38.7 µM | SK-MEL-28 30.3 µM | SK-MEL-5 23.4 µM | SN12C 32.7 µM | T47D 19.7 µM | UO-31 25.2 µM

c1ccc(-c2ccc(-c3cc4ccccc4[nH]3)cc2)cc1
inactive: 786-0 > 100 µM | CCRF-CEM 87.7 µM | DU-145 > 100 µM | EKVX > 100 µM | HOP-92 > 100 µM | KM12 > 100 µM | MCF7 > 100 µM | MDA-MB-435 > 100 µM | NCI-H460 > 100 µM | NCI/ADR-RES > 100 µM | OVCAR-3 > 100 µM | OVCAR-8 > 100 µM | SF-268 > 100 µM | SF-295 > 100 µM | SK-MEL-28 > 100 µM | SK-MEL-5 > 100 µM | SN12C > 100 µM | T47D > 100 µM | UO-31 > 100 µM

CCC(=O)C1(N2CCOCC2)CCN(CCCC(=O)c2ccc(F)cc2)CC1
inactive: 786-0 > 100 µM | CCRF-CEM > 100 µM | DU-145 > 100 µM | EKVX > 100 µM | KM12 > 100 µM | MCF7 > 100 µM | MDA-MB-435 > 100 µM | NCI-H460 > 100 µM | NCI/ADR-RES > 100 µM | OVCAR-3 > 100 µM | OVCAR-8 > 100 µM | RXF 393 > 100 µM | SF-268 > 100 µM | SF-295 > 100 µM | SK-MEL-28 > 100 µM | SK-MEL-5 > 100 µM | SN12C > 100 µM | T47D > 100 µM | UO-31 > 100 µM

COC(=O)[C@@]1(Cc2ccc(OC(C)=O)cc2)Cc2cc3ccccc3n2N1
inactive: 786-0 33.7 µM | CCRF-CEM 26.5 µM | DU-145 62.4 µM | EKVX 23.8 µM | HOP-92 75 µM | KM12 60.7 µM | MCF7 29.9 µM | MDA-MB-435 43.6 µM | NCI/ADR-RES 26.5 µM | OVCAR-3 69.5 µM | OVCAR-8 50.8 µM | SF-268 60.4 µM | SF-295 46.8 µM | SK-MEL-28 54.6 µM | SK-MEL-5 18.2 µM | SN12C 29.6 µM | T47D 24.8 µM | UO-31 50.7 µM
